# In patent US20240025899A1, “TRIHETEROCYCLIC DERIVATIVE, AND PHARMACEUTICAL COMPOSITION AND APPLICATION THEREOF” (SHANGHAI DE NOVO PHARMATECH CO., LTD., priority 2020, published 2024):
# Where a name gives a salt, the structure may show the parent alone. Read-outs that look alike come from different tables or passages of the source.
# Tests used:
# CYP2D6 = CYP2D6 (Homo sapiens (Human), UniProt P10635); test: Cytochrome oxidase P450 inhibition study, CYP2D6; format: in vitro ADME; conditions: human liver microsomes; read-out: IC50 2D6
# Sequence of CYP2D6 (P10635 whole entry): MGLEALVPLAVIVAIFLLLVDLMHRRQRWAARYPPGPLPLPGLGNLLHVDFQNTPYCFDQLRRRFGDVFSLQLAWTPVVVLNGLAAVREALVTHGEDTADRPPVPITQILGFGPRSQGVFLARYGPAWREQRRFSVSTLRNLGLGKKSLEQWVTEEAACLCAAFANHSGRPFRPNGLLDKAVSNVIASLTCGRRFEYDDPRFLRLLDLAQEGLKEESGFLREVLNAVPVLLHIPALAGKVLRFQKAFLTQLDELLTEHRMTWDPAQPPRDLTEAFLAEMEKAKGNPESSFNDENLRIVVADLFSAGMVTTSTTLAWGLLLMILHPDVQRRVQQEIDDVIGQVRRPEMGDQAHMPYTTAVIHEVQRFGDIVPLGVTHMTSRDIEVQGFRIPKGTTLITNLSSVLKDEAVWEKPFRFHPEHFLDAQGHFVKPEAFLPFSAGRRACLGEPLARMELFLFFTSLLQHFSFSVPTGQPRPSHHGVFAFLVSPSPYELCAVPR
# Description: (§1) LC-MS/MS methods were used to evaluate the inhibitory effects of compounds on CYP2C19, 2D6 and 3A4 subtypes. In this method, the test compound was mixed with a solution of human liver microsomes containing CYP model substrates, and incubated together under the addition of NADPH, then the inhibitory IC50 of the compound on CYP2C19, 2D6 and 3A4 was calculated by measuring the amount of metabolites of the model substrate in the reaction solution. The specific experimental method is as follows:
# (§2) Compounds to be tested were prepared as stock solutions at 10 mM concentration with DMSO and then diluted to 4 mM with acetonitrile solution. At the same time, the corresponding reference inhibitor solutions for CYP subtypes were prepared, for example, the reference inhibitor was Ketoconazole, then these two compounds were prepared separately ([…] of inhibitor DMSO stock solution+[…] of acetonitrile), and the samples prepared under the above conditions were at 400× concentration. Then, the above solution was 3-fold diluted with DMSO/acetonitrile mixture (v/v: 40/60) to prepare the final test solution, and seven concentration points were set for each test compound, and the initial test final concentration was 10 μM. […]
# (§3) […] of human liver microsome solution (0.2 mg/mL) was added to each well containing the test compound in the 96-well plate, and then 2 mL of the final test sample of test compounds prepared by serial dilution as described above was added thereto; for each well corresponding to the reference inhibitors, […] of human liver microsome solution (0.2 mg/mL) and 1 mL of the final test sample were added. […] The inhibition rate was determined by comparing the amount of model substrate metabolites at each test concentration without test substance addition, in the GraphPad Prism 5.0 software, the logarithm of the test concentration was used as the abscissa and the inhibition rate was used as the ordinate to perform a linear regression (Sigmoidal (non-linear) dose-response model) analysis to obtain the IC50 value of the test compound.
# ATR/ATRIP kinase = ATR/ATRIP kinase (Homo sapiens (Human), UniProt Q13535); test: ATR enzyme assay (HTRF, phosphorylation of substrate protein P53); format: biochemical; conditions: substrate P53, TR-FRET
# Sequence of ATR/ATRIP kinase (Q13535 whole entry): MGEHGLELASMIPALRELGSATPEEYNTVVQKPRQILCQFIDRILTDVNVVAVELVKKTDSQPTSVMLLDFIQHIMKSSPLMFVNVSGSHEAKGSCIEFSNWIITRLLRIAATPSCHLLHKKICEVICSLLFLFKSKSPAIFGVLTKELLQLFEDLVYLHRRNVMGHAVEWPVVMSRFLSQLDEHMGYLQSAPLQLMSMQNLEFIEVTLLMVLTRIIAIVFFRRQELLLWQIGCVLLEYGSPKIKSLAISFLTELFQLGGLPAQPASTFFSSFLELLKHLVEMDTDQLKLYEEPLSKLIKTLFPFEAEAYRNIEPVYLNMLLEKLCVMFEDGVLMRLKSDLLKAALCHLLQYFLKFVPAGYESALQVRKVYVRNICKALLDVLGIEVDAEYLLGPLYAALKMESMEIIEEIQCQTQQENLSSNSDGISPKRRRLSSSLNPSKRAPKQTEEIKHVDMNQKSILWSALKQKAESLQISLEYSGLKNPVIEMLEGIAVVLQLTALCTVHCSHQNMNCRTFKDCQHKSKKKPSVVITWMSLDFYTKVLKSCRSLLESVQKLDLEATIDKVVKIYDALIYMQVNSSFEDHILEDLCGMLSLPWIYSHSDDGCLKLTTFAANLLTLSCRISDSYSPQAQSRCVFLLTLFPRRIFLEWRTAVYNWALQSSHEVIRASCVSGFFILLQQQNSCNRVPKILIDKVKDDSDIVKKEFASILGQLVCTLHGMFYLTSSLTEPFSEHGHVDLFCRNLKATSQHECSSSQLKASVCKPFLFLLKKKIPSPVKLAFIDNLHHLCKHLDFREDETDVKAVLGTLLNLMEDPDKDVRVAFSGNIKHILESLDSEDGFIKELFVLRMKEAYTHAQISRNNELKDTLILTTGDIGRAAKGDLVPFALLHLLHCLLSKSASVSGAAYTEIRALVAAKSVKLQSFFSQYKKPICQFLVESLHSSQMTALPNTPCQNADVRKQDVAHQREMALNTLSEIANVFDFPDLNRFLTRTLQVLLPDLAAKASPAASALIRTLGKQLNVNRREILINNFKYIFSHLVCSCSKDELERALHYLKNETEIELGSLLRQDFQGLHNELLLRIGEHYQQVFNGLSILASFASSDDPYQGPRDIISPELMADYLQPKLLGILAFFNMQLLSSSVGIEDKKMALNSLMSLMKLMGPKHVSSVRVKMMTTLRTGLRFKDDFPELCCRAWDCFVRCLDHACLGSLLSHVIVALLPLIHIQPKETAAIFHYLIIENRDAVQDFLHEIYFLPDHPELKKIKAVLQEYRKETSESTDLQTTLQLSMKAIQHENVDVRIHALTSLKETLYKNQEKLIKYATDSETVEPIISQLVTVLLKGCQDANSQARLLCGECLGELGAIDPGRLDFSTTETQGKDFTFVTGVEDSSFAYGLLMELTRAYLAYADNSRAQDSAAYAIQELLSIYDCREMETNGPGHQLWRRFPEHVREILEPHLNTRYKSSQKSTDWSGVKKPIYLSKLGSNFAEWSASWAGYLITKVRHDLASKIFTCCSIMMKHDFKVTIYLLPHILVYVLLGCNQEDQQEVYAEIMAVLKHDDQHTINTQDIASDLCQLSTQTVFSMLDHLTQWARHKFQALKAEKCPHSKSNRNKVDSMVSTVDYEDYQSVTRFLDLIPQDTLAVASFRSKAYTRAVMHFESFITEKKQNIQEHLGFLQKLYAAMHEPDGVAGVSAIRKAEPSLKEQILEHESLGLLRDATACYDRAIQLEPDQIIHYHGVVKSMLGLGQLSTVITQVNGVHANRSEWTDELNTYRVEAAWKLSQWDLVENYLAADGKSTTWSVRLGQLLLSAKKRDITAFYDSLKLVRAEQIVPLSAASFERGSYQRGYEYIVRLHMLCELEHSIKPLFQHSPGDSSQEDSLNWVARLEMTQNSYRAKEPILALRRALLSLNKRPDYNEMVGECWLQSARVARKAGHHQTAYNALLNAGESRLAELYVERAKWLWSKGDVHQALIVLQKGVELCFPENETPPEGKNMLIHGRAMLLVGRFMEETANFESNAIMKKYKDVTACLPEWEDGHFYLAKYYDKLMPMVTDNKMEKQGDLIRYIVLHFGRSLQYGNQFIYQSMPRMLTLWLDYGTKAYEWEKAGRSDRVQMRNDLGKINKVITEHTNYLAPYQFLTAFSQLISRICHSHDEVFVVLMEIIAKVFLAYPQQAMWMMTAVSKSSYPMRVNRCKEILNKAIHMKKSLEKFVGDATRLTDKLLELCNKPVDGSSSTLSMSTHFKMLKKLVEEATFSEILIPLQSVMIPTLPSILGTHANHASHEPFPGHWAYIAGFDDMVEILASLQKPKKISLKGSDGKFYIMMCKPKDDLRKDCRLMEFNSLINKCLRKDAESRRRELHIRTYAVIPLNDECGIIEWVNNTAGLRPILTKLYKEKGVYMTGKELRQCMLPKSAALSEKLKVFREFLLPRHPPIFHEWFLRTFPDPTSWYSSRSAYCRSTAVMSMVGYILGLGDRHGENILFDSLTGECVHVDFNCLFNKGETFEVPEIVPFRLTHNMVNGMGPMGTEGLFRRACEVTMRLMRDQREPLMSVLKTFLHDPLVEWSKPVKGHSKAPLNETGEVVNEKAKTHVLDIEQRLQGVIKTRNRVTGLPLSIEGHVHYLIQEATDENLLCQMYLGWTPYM
# Sequence of ATR/ATRIP kinase (Q8WXE1 whole entry partner): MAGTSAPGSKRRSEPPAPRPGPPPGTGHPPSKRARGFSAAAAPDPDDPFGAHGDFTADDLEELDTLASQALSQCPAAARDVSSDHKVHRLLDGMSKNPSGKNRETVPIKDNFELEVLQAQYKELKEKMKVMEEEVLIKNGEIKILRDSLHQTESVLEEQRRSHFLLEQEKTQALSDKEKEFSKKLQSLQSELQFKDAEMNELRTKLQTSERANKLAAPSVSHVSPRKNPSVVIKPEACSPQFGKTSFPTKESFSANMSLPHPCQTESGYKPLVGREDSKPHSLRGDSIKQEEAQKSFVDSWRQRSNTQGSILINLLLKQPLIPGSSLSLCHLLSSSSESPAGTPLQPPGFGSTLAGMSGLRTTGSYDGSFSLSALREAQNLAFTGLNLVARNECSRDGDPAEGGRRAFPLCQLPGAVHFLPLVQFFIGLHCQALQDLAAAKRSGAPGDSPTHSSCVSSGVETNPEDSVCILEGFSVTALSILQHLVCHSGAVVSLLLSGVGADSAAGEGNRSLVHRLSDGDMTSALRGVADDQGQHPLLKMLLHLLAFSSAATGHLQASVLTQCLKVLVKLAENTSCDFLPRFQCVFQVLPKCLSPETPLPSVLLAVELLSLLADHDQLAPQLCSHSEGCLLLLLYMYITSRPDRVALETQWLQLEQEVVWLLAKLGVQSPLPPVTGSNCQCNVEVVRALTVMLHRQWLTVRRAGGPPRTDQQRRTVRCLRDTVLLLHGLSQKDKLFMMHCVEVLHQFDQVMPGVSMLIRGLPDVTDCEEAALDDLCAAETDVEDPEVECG
# Description: In this experiment, the phosphorylation level of substrate protein P53 (Eurofins, 14-952) was detected by HTRF technology to measure the activity of ATR/ATRIP (Eurofins, 14-953) kinase. Reaction buffer (25 mM HEPES pH 8.0, 0.01% Brij-35, 1% Glycerol, 5 mM DTT, 1 mg/mL BSA), termination buffer (12.5 mM HEPES pH 8.0, 0.005% Brij-35, 0.5% Glycerol, 250 mM EDTA) and assay buffer (50 mM HEPES pH 7.0, 150 mM NaCl, 267 mM KF, 0.1% sodium cholate, 0.01% Tween 20) were prepared in advance. ATR/ATRIP was diluted with reaction buffer to a working solution of 2 ng/μL, and the substrate protein P53 was diluted with reaction buffer to a working solution of 80 nM, and 4 nM of ATP (Sigma, A2383) working solution (containing 40 mM MnCl2) was prepared with reaction buffer. The compound was 3-fold diluted with DMSO, then diluted with reaction buffer into a working solution, then added to a 384-well plate at 2.5 μL/well, and centrifuged at 1500 rpm for 40 s. Then 2.5 μL of ATR/ATRIP working solution, P53 working solution and ATP working solution were added into the 384-well plate, centrifuged at 1500 rpm for 40 s and reacted at room temperature for 30 minutes. After the reaction was completed, 5 μL of termination buffer was added to each well, and centrifuged at 1500 rpm for 40 s. Antibody working solution containing 0.083 μg/mL anti-phospho-p53 (Ser15)-K (CisBio, cat. 61P08KAE) and 5 μg/mL anti-GST-d2 (CisBio, cat. 61GSTDLA) was prepared with assay buffer and added to the 384-well plate at 5 μL/well, then centrifuged at 1500 rpm for 40 s and reacted overnight at room temperature. Microplate reader (Tecan, Infinite M1000 Pro) was used to detect TR-FRET, and the data were analyzed with Graphpad software, and the four-parameter equation was used to fit the curve and calculate the IC50 value of the inhibitor (Table 1).
# CYP3A4 = CYP3A4 (Homo sapiens (Human), UniProt P08684); test: Cytochrome oxidase P450 inhibition study, CYP3A4; format: in vitro ADME; conditions: human liver microsomes
# Sequence of CYP3A4 (P08684 whole entry): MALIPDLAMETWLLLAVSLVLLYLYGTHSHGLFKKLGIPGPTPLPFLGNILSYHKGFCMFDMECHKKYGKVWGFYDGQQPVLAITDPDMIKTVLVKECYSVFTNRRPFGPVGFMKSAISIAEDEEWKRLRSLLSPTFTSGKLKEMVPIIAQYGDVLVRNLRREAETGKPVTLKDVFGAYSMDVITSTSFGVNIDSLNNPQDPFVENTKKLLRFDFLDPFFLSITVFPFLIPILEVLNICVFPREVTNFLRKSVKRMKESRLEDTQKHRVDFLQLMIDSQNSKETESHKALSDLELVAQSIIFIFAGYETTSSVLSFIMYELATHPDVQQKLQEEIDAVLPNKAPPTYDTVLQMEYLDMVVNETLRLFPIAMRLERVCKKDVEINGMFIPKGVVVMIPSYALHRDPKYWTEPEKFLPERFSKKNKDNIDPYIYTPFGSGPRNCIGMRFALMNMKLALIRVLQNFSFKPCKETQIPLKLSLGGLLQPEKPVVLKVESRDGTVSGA
# Description: as §1
# Compounds to be tested were prepared as stock solutions at 10 mM concentration with DMSO and then diluted to 4 mM with acetonitrile solution. At the same time, the corresponding reference inhibitor solutions for CYP subtypes were prepared, for example, the reference inhibitor was Ketoconazole, then these two compounds were prepared separately ([…] of inhibitor DMSO stock solution+[…] of acetonitrile), and the samples prepared under the above conditions were at 400× concentration. Then, the above solution was 3-fold diluted with DMSO/acetonitrile mixture (v/v: 40/60) to prepare the final test solution, and seven concentration points were set for each test compound, and the initial test final concentration was 10 μM. NADPH, CYP enzyme model substrate and human liver microsome solution were diluted to appropriate concentrations with pre-warmed potassium phosphate buffer (0.1 M, pH 7.4), respectively. The human liver microsome solution was purchased from BD Gentest (20 mg/mL, Corning, article number #452161).
# […] of human liver microsome solution (0.2 mg/mL) was added to each well containing the test compound in the 96-well plate, and then 2 mL of the final test sample of test compounds prepared by serial dilution as described above was added thereto; for each well corresponding to the reference inhibitors, […] of human liver microsome solution (0.2 mg/mL) and 1 mL of the final test sample were added. […] of the prepared corresponding model substrate was dispensed into a 96-well plate, and the microsome solution was mixed evenly, then 30 mL of the test compound/reference inhibitor-human liver microsome mixture was taken and transferred to the 96-well plate containing the substrate, and the mixture was mixed well and preheated at 37° C. for 5 minutes, then […] of 8 mM NADPH solution preheated at 37° C. was added thereto to start the reaction. A duplicate well control and a blank control without the addition of test substances were set at the same time. The 96-well plate containing a total volume of […] of reaction solution was incubated at 37° C. After the incubation, 120 μL of cold acetonitrile solution containing internal standard was added to each well to terminate the reaction, and then the 96-well plate was shaked on a microplate shaker for 5 minutes (600 rpm/min), and put into a centrifuge and centrifuged for 20 minutes at 6000 rpm, 4° C. Then 40 μL of supernatant from each well was transferred to another 96-well plate, and 80 μL of ultrapure water was added to each well, put into a shaker and mixed for 5 minutes (600 rpm/min), and centrifuged at 6000 rpm, 4° C., for 20 minutes. Then LC-MS/MS detection was performed. The inhibition rate was determined by comparing the amount of model substrate metabolites at each test concentration without test substance addition, in the GraphPad Prism 5.0 software, the logarithm of the test concentration was used as the abscissa and the inhibition rate was used as the ordinate to perform a linear regression (Sigmoidal (non-linear) dose-response model) analysis to obtain the IC50 value of the test compound.
# CYP2C19 = CYP2C19 (Homo sapiens (Human), UniProt P33261); test: Cytochrome oxidase P450 inhibition study, CYP2C19; format: in vitro ADME; conditions: human liver microsomes; read-out: IC50 2C19
# Sequence of CYP2C19 (P33261 whole entry): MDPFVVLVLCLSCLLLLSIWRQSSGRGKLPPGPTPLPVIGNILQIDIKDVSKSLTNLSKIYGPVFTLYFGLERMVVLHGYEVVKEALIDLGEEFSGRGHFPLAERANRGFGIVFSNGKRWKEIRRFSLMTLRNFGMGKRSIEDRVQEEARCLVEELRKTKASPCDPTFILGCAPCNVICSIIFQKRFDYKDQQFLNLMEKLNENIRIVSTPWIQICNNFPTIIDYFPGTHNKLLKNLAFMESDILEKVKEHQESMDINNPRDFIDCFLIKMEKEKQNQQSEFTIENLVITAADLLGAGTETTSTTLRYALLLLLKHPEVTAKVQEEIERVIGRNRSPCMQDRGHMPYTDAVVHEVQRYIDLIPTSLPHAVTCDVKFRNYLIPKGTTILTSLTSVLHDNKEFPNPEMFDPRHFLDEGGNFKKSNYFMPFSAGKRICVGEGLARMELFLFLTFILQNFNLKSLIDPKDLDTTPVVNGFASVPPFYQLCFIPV
# Description: as §1, §2, §3
# hERG channel = hERG channel (Homo sapiens (Human), UniProt Q12809); test: Cardiac safety evaluation, hERG study (QPatch whole-cell recording); format: cell-based; conditions: CHO cell line expressing hERG channel
# Description: In this experiment, a CHO cell line stably transfected with hERG cDNA and expressing p15 hERG channel was used. Cells were incubated at 37° C. in a humidified incubator containing 5% CO2 in medium (Ham's F12, 10% v/v FBS, 100 μg/mL hygromycin B, 100 μg/mL geneticin) (from Invitrogen). Cells were grown under the above conditions and reached approximately 80-90% of the confluency. Cells were treated with Detachin (Genlantis) for 3 to 5 minutes. The medium was titrated 15 to 20 times at 37° C., and then the cells were resuspended in CHO-S-SFM II medium (serum-free medium, Invitrogen) buffered with HEPES (25 mM). Cells used for QPatch studies must meet the following criteria: Most suspension cells should be single and isolated under microscopy; viability should be greater than 95%; cell density in the final suspension should be in the range of 3 to 8×10^6 cells/mL before application to the QPatch stir chamber. Cells meeting the above conditions can be used for recordings within 4 hours of harvest.
# Test compounds were made into 10 mM DMSO stock solutions. Six doses (30, 10, 3, 1, 0.3 and 0.1 μM) were selected to obtain the fitted curves and IC50. The final DMSO concentration was 0.1% or less. The IC50 of the positive control cisapride was assessed at doses of 3, 1, 0.3, 0.1, 0.03 and 0.01 μM, respectively. Composition of […] for electrophysiological recordings: CaCl2 2 mM, MgCl2 1 mM, KCl 4 mM, NaCl 145 mM, Glucose 10 mM, HEPES 10 mM, pH 7.4 (NaOH), composition of external solution: CaCl2 […], MgCl2 1.75 mM, KCl 120 mM, HEPES 10 mM, EGTA 5 mM, Na-ATP 4 mM, pH 7.25 (KOH) (all reagents used were from sigma).
# Whole-cell recordings were performed using automated QPatch (Sophion Biosciences, Denmark). Cells were recorded for 120 s to assess current stability. The above voltages were then applied to the cells every 15 s throughout the procedure. […]
# The data were analyzed with Sophion Assay software (determination software V5.0), Microsoft Excel and Graphpad Prism 5.0 to obtain IC50 of compounds.
structure (smiles),measurement,setting,value
"C[C@@H]1COCCN1c1nc2c(cnn2-c2cc[nH]n2)c2c1ccn2S(=O)(=O)N(C)C [Compound 3, (R)—N,N-dimethyl-4-(3-methylmorpholino)-6-(1H-pyrazol-3-yl)pyrazolo[3,4-b]pyrrolo[2,3-d]pyridine-1(6H)-sulfonamide trifluoroacetate]",IC50,CYP2D6,> 10 µM
same,IC50,ATR/ATRIP kinase,0.00051 µM
same,IC50,"CYP3A4; substrate Midazolam, read-out: IC50 3A4 (Midazolam)",> 10 µM
same,IC50,"CYP3A4; substrate Testosterone, read-out: IC50 3A4 (Testosterone)",> 10 µM
same,IC50,CYP2C19,> 10 µM
same,IC50,hERG channel,> 30 µM
